{"source": "patent US20200289474A1", "about": "“METHODS OF TREATING PAIN WITH A THIAZOLINE ANTI-HYPERALGESIC” (priority 2019, published 2020)", "key": {"P-gp": {"biological_target": "T1, P-gp (Homo sapiens, UniProt P08183)", "T1 construct": "Caco-2 cells; endogenous in cells; host or cells: Caco-2 cells", "T1 sequence (P08183 whole entry)": "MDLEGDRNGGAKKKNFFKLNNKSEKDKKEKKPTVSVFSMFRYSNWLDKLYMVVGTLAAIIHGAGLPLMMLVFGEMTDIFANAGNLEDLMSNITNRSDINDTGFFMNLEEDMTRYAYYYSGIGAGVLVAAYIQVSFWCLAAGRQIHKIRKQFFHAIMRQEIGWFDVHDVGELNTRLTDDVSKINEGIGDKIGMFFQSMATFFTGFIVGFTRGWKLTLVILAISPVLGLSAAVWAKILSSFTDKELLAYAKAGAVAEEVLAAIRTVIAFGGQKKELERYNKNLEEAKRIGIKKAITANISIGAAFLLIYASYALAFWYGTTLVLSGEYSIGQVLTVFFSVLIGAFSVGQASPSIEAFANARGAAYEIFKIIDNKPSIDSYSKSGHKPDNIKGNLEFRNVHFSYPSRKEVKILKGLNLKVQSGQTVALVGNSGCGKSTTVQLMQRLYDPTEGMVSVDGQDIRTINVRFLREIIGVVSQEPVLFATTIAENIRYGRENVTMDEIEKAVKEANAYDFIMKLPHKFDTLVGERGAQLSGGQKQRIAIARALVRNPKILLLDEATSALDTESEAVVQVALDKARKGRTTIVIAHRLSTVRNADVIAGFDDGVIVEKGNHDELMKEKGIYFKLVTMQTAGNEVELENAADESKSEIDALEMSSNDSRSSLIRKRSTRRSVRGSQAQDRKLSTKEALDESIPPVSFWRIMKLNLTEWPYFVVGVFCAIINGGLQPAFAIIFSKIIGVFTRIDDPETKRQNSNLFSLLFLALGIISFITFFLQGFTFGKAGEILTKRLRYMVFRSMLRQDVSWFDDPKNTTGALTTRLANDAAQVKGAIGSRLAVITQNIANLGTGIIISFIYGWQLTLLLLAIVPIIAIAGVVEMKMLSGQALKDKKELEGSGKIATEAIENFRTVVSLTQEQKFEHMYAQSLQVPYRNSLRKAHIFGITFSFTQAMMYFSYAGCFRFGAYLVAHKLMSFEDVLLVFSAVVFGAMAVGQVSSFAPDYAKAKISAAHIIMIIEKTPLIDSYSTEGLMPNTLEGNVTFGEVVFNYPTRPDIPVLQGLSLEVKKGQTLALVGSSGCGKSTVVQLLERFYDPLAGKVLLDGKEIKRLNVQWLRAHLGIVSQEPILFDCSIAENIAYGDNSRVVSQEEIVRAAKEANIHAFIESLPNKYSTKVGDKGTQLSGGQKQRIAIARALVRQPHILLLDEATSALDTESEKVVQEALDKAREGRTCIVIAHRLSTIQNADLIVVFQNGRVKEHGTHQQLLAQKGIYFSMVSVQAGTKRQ", "assay": "transporter inhibition, Caco-2 cells, digoxin transport", "format": "in vitro ADME"}, "[1]": {"system": "STZ-induced mechanical allodynia", "assay": "STZ-induced diabetic rats, subsequent study", "format": "in vivo, rat", "description": "Experiments were conducted to determine the effect of Compound 1 in streptozotocin (STZ)-induced diabetic rats. In the first experiment, after obtaining mechanical threshold baselines, STZ (50 mg/kg IV) was administered (Day −7). Two days later, blood glucose levels were measured and animals that were hyperglycemic (>250 mg/dL) continued in the study. On Day 0 the baseline for mechanical thresholds prior to dosing with test articles was established for the rats. Compound 1 (10, 30, and 100 mg/kg PO), gabapentin (100 mg/kg PO) or vehicle was then administered daily for 5 days. On Day 0 mechanical thresholds were obtained at 1, 3, and 6 h post-dose. On Day 1 mechanical thresholds were measured immediately prior to dosing and then 3 h post-dose. The same regimen was followed on Day 3.\nIn a subsequent study, the same STZ paradigm was followed. However, in addition to the 100 mg/kg Compound 1 group, two additional cohorts received the Compound 1 100 mg/kg dose split into two or three doses per day with 50 mg/kg BID and 33 mg/kg TID. In addition to the gabapentin (100 mg/kg PO) group, a separate cohort received duloxetine (30 mg/kg PO). Additionally, in this study mechanical threshold testing was implemented every day immediately prior to dosing and 2 h post-dose for 7 days."}, "[2]": {"system": "incision-induced hyperalgesia", "assay": "Brennan protocol, treatment paradigm (established hyperalgesia)", "format": "in vivo, rat", "source_text": "Two incisional pain models were used to assess Compound 1 effects on hyperalgesia. The first model is referred to as the Brennan model in which, under anesthesia, a 1 cm longitudinal incision to the skin and underlying fascia of a rat hindpaw is made. The second is a variation but is a more invasive procedure in which the skin and muscle are spread apart using forceps which creates a longer-lasting hypersensitivity.\nUsing the Brennan protocol and a treatment paradigm in rat, Compound 1 (10 and 30 mg/kg PO), morphine (3 mg/kg SC) or vehicle were administered daily at 24 h post-incision, and again at 48 and 72 h post-incision. Mechanical thresholds were obtained at 1 h and 2 h post-dose in all cohorts on all days."}, "[3]": {"assay": "solubility in organic/aqueous solvents", "format": "physicochemical"}, "stability in plasma": {"assay": "stability in plasma", "format": "in vitro ADME", "details": "human plasma"}, "[4]": {"assay": "dog 28-day repeat dose PO study", "format": "in vivo", "details": "for Cmax: dog 28 Day PO", "description": "Beagle dogs (4/sex/group plus 2/sex/group for control and high dose animals for recovery) were administered daily doses of 0, 100, 250 or 400 mg/kg/day of Compound 1 in 0.5% HPMC. […] Dogs in Group 1 (Vehicle Control) were bled once at approximately 2-4 hours post-dose on those days."}}, "note": "Where two headings read alike, the source gives them in different places.", "data": [{"smiles": "CC1(C)SC(Nc2ccccc2O)=N[C@@H]1C(=O)O.Cl", "note": "[Compound 1, (R)-2-(2-hydroxyphenylamino)-5,5-dimethyl-4,5-dihydrothiazole-4-carboxylic acid mono-hydrochloride]", "values": [{"measurement": "inhibition", "setting": "P-gp", "value": "does not inhibit"}, {"measurement": "difference between dosing regimens", "setting": "[1]; 100 mg/kg QD vs 50 mg/kg BID vs 33 mg/kg TID", "value": "no clear difference"}, {"measurement": "reversal of allodynia", "setting": "[1]; 100 mg/kg QD, 50 mg/kg BID, 33 mg/kg TID PO, 7 days, statistical significance from Day 1", "value": "reversed allodynia"}, {"measurement": "reversal of hyperalgesia", "setting": "[2]; 10 and 30 mg/kg PO, Day 2, 1 h and 2 h post-dosing", "value": "full reversal of hyperalgesia"}, {"measurement": "hyperalgesia", "setting": "[2]; 10 and 30 mg/kg PO, Day 3 prior to dosing", "value": "did not show hyperalgesia"}, {"measurement": "hyperalgesia", "setting": "[2]; low- and high-dose, Day 3 after dosing", "value": "prevented/reversed hyperalgesia completely"}, {"measurement": "reversal of hyperalgesia", "setting": "[2]; low-dose (10 mg/kg PO), Day 1, 2 h post-dose", "value": "partial reversal"}, {"measurement": "solubility", "setting": "[3]; in 2-propanol, ethanol, 10% water: isopropyl acetate, 10% water/tetrahydrofuran, and water", "value": "sparingly soluble"}, {"measurement": "solubility", "setting": "[3]; in methanol and tert-butyl alcohol: water (1:1)", "value": "freely soluble"}, {"measurement": "solubility", "setting": "[3]; in n-heptane, toluene, acetone, tetrahydrofuran, ethyl acetate, isopropyl acetate, t-butyl methyl ether, t-butyl alcohol", "value": "less than sparingly soluble"}, {"measurement": "stability in plasma", "setting": "stability in plasma", "value": "stable"}, {"measurement": "Tmax at 28 days", "setting": "[4]; both sexes, beagle, dog, in vivo, po, dog 28-day PO, all animals, read-out: median tmax", "value": 1, "unit": "h"}, {"measurement": "Tmax at 28 days", "setting": "[4]; both sexes, beagle, dog, in vivo, po, dog 28-day study (summary), read-out: Tmax", "value": "≤ 1", "unit": "h"}, {"measurement": "Cmax at 28 days", "setting": "[4]; both sexes, beagle, in vivo, po, dog 28-day pivotal study, at some doses", "value": "> 100", "unit": "µg/mL"}, {"measurement": "mean t1/2", "setting": "[4]; both, beagle, dog, in vivo, po", "value": 3.5, "unit": "h"}, {"measurement": "Cmax", "setting": "[4]; Day 1, 100 mg/kg, F", "value": 69.3, "unit": "µg/mL"}, {"measurement": "Cmax", "setting": "[4]; Day 1, 100 mg/kg, M", "value": 49.9, "unit": "µg/mL"}, {"measurement": "Cmax", "setting": "[4]; Day 1, 250 mg/kg, F", "value": 101, "unit": "µg/mL"}, {"measurement": "Cmax", "setting": "[4]; Day 1, 250 mg/kg, M", "value": 104, "unit": "µg/mL"}, {"measurement": "Cmax", "setting": "[4]; Day 1, 400 mg/kg, F", "value": 129, "unit": "µg/mL"}, {"measurement": "Cmax", "setting": "[4]; Day 1, 400 mg/kg, M", "value": 128, "unit": "µg/mL"}, {"measurement": "Cmax", "setting": "[4]; Day 15, 100 mg/kg, F", "value": 53.0, "unit": "µg/mL"}, {"measurement": "Cmax", "setting": "[4]; Day 15, 100 mg/kg, M", "value": 50.4, "unit": "µg/mL"}, {"measurement": "Cmax", "setting": "[4]; Day 15, 250 mg/kg, F", "value": 94.6, "unit": "µg/mL"}, {"measurement": "Cmax", "setting": "[4]; Day 15, 250 mg/kg, M", "value": 88.0, "unit": "µg/mL"}, {"measurement": "Cmax", "setting": "[4]; Day 15, 400 mg/kg, F", "value": 123, "unit": "µg/mL"}, {"measurement": "Cmax", "setting": "[4]; Day 15, 400 mg/kg, M", "value": 112, "unit": "µg/mL"}, {"measurement": "Cmax", "setting": "[4]; Day 28, 100 mg/kg, F", "value": 60.8, "unit": "µg/mL"}, {"measurement": "Cmax", "setting": "[4]; Day 28, 100 mg/kg, M", "value": 45.0, "unit": "µg/mL"}, {"measurement": "Cmax", "setting": "[4]; Day 28, 250 mg/kg, F", "value": 89.5, "unit": "µg/mL"}, {"measurement": "Cmax", "setting": "[4]; Day 28, 250 mg/kg, M", "value": 105, "unit": "µg/mL"}, {"measurement": "Cmax", "setting": "[4]; Day 28, 400 mg/kg, F", "value": 131, "unit": "µg/mL"}, {"measurement": "Cmax", "setting": "[4]; Day 28, 400 mg/kg, M", "value": 125, "unit": "µg/mL"}]}]}
